In PubChem BioAssay (NCI):
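These data come from cells grown in 96-well plates and exposed to compound for 48 hours at five concentrations. GI50 marks 50% less growth. Definition used: TGI = concentration required for complete inhibition of growth.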

How the values were obtained:
Assay in all cases: inhibition of tumour cell growth, NCI panel, 48 h
[1] = system: NCI/ADR-RES ovarian
[2] = system: T-47D breast
[3] = system: TK-10 renal
[4] = system: SK-MEL-28 melanoma
[5] = system: SR leukemia
[6] = system: MOLT-4 leukemia
[7] = system: SF-268 CNS
[8] = system: NCI-H460 lung
[9] = system: HCT-116 colon
[10] = system: SK-MEL-2 melanoma
[11] = system: M14 melanoma
[12] = system: SK-MEL-5 melanoma
[13] = system: A549 NSCLC
[14] = system: SF-539 CNS
[15] = system: DU-145 prostate
[16] = system: NCI-H23 lung
[17] = system: HCT-15 colon
[18] = system: HOP-62 NSCLC
[19] = system: KM12 colon
[20] = system: CCRF-CEM leukemia
[21] = system: SN12C renal
[22] = system: RPMI-8226 leukemia
[23] = system: OVCAR-8 ovarian
[24] = system: OVCAR-3 ovarian
[25] = system: OVCAR-4 ovarian
[26] = system: SW-620 colon
[27] = system: COLO 205 colon
[28] = system: CAKI-1 renal
[29] = system: MCF7 breast
[30] = system: EKVX NSCLC
[31] = system: PC-3 prostate
[32] = system: HCC-2998 colon
[33] = system: HOP-92 NSCLC
[34] = system: HL-60(TB) leukemia
[35] = system: HS 578T breast
[36] = system: ACHN renal
[37] = system: SK-OV-3 ovarian
[38] = system: SF-295 CNS
[39] = system: 786-0 renal
[40] = system: UO-31 renal
[41] = system: MDA-MB-231 breast
[42] = system: NCI-H226 lung
[43] = system: MDA-MB-435
[44] = system: MALME-3M melanoma
[45] = system: U251 CNS
[46] = system: UACC-62 melanoma
[47] = system: HT29 colon
[48] = system: IGROV1 ovarian
[49] = system: LOX IMVI melanoma
[50] = system: SNB-19 CNS
[51] = system: NCI-H522 lung
[52] = system: BT-549 breast
[53] = system: RXF 393 renal
[54] = system: UACC-257 melanoma
[55] = system: SNB-75 CNS
[56] = system: OVCAR-5 ovarian
[57] = system: A498 renal

## CCc1ccc(C(=O)/C=C/C23c4ccccc4C(c4ccccc42)C2C(=O)NC(=O)C23)cc1 (stereo not drawn)
[1]
  GI50: 2.15 µM
  TGI: 4.73 µM
[2]
  GI50: 2.28 µM
  TGI: 6.4 µM
[3]
  GI50: 2.62 µM
  TGI: 6.47 µM
[4]
  GI50: 1.96 µM
  TGI: 3.6 µM
[5]
  GI50: 1.37 µM
  TGI: 4.36 µM
[6]
  GI50: 2.23 µM
  TGI: 7.97 µM
[7]
  GI50: 1.86 µM
  TGI: 4.09 µM
[8]
  GI50: 2.12 µM
  TGI: 5.09 µM
[9]
  GI50: 1.58 µM
  TGI: 3.65 µM
[10]
  GI50: 2.23 µM
  TGI: 4.65 µM
[11]
  GI50: 2.07 µM
  TGI: 4.74 µM
[12]
  GI50: 1.65 µM
  TGI: 3.21 µM
[13]
  GI50: 2.07 µM
  TGI: 5.54 µM
[14]
  GI50: 1.69 µM
  TGI: 3.22 µM
[15]
  GI50: 1.66 µM
  TGI: 3.08 µM
[16]
  GI50: 2.09 µM
  TGI: 4.15 µM
[17]
  GI50: 1.79 µM
  TGI: 4.02 µM
[18]
  GI50: 2.87 µM
  TGI: 8.82 µM
[19]
  GI50: 1.82 µM
  TGI: 3.77 µM
[20]
  GI50: 2.66 µM
  TGI: 11 µM
[21]
  GI50: 1.76 µM
  TGI: 3.42 µM
[22]
  GI50: 1.87 µM
  TGI: 4.6 µM
[23]
  GI50: 2.09 µM
  TGI: 5.68 µM
[24]
  GI50: 1.71 µM
  TGI: 3.1 µM
[25]
  GI50: 2.9 µM
  TGI: 11.9 µM
[26]
  GI50: 2.37 µM
  TGI: 5.72 µM
[27]
  GI50: 2.13 µM
  TGI: 4.02 µM
[28]
  GI50: 2.27 µM
  TGI: 7.29 µM
[29]
  GI50: 1.89 µM
  TGI: 5.62 µM
[30]
  GI50: 1.6 µM
  TGI: 3.56 µM
[31]
  GI50: 1.73 µM
  TGI: 3.7 µM
[32]
  GI50: 2.09 µM
  TGI: 3.65 µM
[33]
  GI50: 1.73 µM
  TGI: 3.5 µM
[34]
  GI50: 0.0697 µM
  TGI: 1.93 µM
[35]
  GI50: 2.24 µM
  TGI: 8.73 µM
[36]
  GI50: 3.35 µM
  TGI: 12.3 µM
[37]
  GI50: 2.84 µM
  TGI: 7.54 µM
[38]
  GI50: 2.45 µM
  TGI: 5.73 µM
[39]
  GI50: 1.81 µM
  TGI: 3.54 µM
[40]
  GI50: 1.47 µM
  TGI: 5.55 µM
[41]
  GI50: 2.76 µM
  TGI: 8.33 µM
[42]
  GI50: 2.68 µM
  TGI: 9.12 µM
[43]
  GI50: 2.31 µM
  TGI: 5.53 µM
[44]
  GI50: 1.82 µM
  TGI: 3.96 µM
[45]
  GI50: 1.75 µM
  TGI: 3.17 µM
[46]
  GI50: 1.73 µM
  TGI: 3.48 µM
[47]
  GI50: 2.2 µM
  TGI: 4.75 µM
[48]
  GI50: 1.76 µM
  TGI: 4.1 µM
[49]
  GI50: 1.67 µM
  TGI: 3.16 µM
[50]
  GI50: 1.93 µM
  TGI: 3.96 µM
[51]
  GI50: 1.96 µM
  TGI: 4.89 µM
[52]
  GI50: 1.73 µM
  TGI: 3.67 µM
[53]
  GI50: 1.72 µM
  TGI: 3.24 µM
[54]
  GI50: 1.9 µM
  TGI: 4.15 µM
[55]
  GI50: 1.67 µM
  TGI: 3.45 µM
[56]
  GI50: 2.23 µM
  TGI: 5.57 µM
[57]
  GI50: 1.71 µM
  TGI: 3.14 µM

## O=C(O)c1ccc(NCc2nc3cc(Cl)c(Cl)cc3[nH]2)cc1
[1]
  GI50: > 100 µM
  TGI: > 100 µM
[2]
  GI50: > 100 µM
  TGI: > 100 µM
[3]
  GI50: > 100 µM
  TGI: > 100 µM
[4]
  GI50: 3.77 µM
  TGI: > 100 µM
[5]
  GI50: 69.6 µM
  TGI: > 100 µM
[6]
  GI50: > 100 µM
  TGI: > 100 µM
[7]
  GI50: > 100 µM
  TGI: > 100 µM
[8]
  GI50: > 100 µM
  TGI: > 100 µM
[9]
  GI50: > 100 µM
  TGI: > 100 µM
[10]
  GI50: 5.5 µM
  TGI: 41.6 µM
[11]
  GI50: > 100 µM
  TGI: > 100 µM
[12]
  GI50: 93.4 µM
  TGI: > 100 µM
[13]
  GI50: > 100 µM
  TGI: > 100 µM
[14]
  GI50: > 100 µM
  TGI: > 100 µM
[15]
  GI50: > 100 µM
  TGI: > 100 µM
[16]
  GI50: > 100 µM
  TGI: > 100 µM
[17]
  GI50: 96.9 µM
  TGI: > 100 µM
[18]
  GI50: > 100 µM
  TGI: > 100 µM
[19]
  GI50: > 100 µM
  TGI: > 100 µM
[20]
  GI50: > 100 µM
  TGI: > 100 µM
[21]
  GI50: > 100 µM
  TGI: > 100 µM
[22]
  GI50: > 100 µM
  TGI: > 100 µM
[23]
  GI50: > 100 µM
  TGI: > 100 µM
[24]
  GI50: 60.7 µM
  TGI: > 100 µM
[25]
  GI50: 40.9 µM
  TGI: > 100 µM
[26]
  GI50: > 100 µM
  TGI: > 100 µM
[27]
  GI50: > 100 µM
  TGI: > 100 µM
[28]
  GI50: > 100 µM
  TGI: > 100 µM
[29]
  GI50: 6.03 µM
  TGI: > 100 µM
[30]
  GI50: > 100 µM
  TGI: > 100 µM
[31]
  GI50: > 100 µM
  TGI: > 100 µM
[32]
  GI50: 72.3 µM
  TGI: > 100 µM
[33]
  GI50: > 100 µM
  TGI: > 100 µM
[34]
  GI50: > 100 µM
  TGI: > 100 µM
[35]
  GI50: > 100 µM
  TGI: > 100 µM
[36]
  GI50: > 100 µM
  TGI: > 100 µM
[37]
  GI50: > 100 µM
  TGI: > 100 µM
[38]
  GI50: > 100 µM
  TGI: > 100 µM
[39]
  GI50: > 100 µM
  TGI: > 100 µM
[40]
  GI50: > 100 µM
  TGI: > 100 µM
[41]
  GI50: > 100 µM
  TGI: > 100 µM
[42]
  GI50: > 100 µM
  TGI: > 100 µM
[43]
  GI50: > 100 µM
  TGI: > 100 µM
[44]
  GI50: 0.424 µM
  TGI: 1.69 µM
[45]
  GI50: > 100 µM
  TGI: > 100 µM
[46]
  GI50: > 100 µM
  TGI: > 100 µM
[47]
  GI50: > 100 µM
  TGI: > 100 µM
[48]
  GI50: > 100 µM
  TGI: > 100 µM
[49]
  GI50: > 100 µM
  TGI: > 100 µM
[50]
  GI50: > 100 µM
  TGI: > 100 µM
[51]
  GI50: 66.2 µM
  TGI: > 100 µM
[52]
  GI50: > 100 µM
  TGI: > 100 µM
[53]
  GI50: > 100 µM
  TGI: > 100 µM
[54]
  GI50: 5.28 µM
  TGI: 77.6 µM
[55]
  GI50: > 100 µM
  TGI: > 100 µM
[56]
  GI50: > 100 µM
  TGI: > 100 µM
[57]
  GI50: > 100 µM
  TGI: > 100 µM
